This note sets out measurements from patent publication US20240139198A1, “METHOD AND COMBINATION FOR TREATING TUMORS” (CURON BIOPHARMACEUTICAL (SHANGHAI) CO., LIMITED, priority 2021, published 2024).

Assay [1] has as its system A20 cells. Put plainly: A20 mouse B-cell lymphoma animal model, tumor growth in Balb/c mice. The assay is classed as in vivo. On the procedure:
The animal experiment was carried out in accordance with the requirements of AAALAC, and was approved by Bikai Animal Experiment Center IACUC to conduct. 6-8 week-old Balb/c mice (16-20 grams) were purchased from Beijing Weitong Lihua Experimental Animal Technology Co., Ltd. Each mouse was subcutaneously inoculated with 500,000 A20 cells, and inoculated on the right rear side of the back of the mouse. When the volume of the tumor grew to about 60mm^3, the mice were randomly assigned to the control group and the experimental group.
Mice were euthanized whnmorbidity or weightloss>20% was observed. Tumors were measured with a caliper twice weekly until final sacrifice. When a tumor size reached approximately 2000 mm^3 or there were animal health issues (20% area of a tumor ulcerated), the animals would be euthanized an date of death recorded. Solid tumor volumes were estimated from two dimensional tumor measurements and calculated according to the following equation:
Tumor volume (mm 3)=[length(mm)×width2 (mm 2)]/2
The percent median regression for a group at a given day was then obtained by taking the median of the individual percent regression calculated for each animal of the group at this day. The day of calculation was determined on the day when ΔT/ΔC (i.e., the ratio of medians of tumor volume changes from baseline between the treated and control groups)was calculated, except when median percent regression was not representative of the activity of the group. In that case, the day was determined on the first day when the median percent regression was maximal. Regressions were defined as partial (PR) if the tumor volume decreased to 50% of the tumor volume at the start of treatment. Complete regression (CR) was considered to have been achieved when tumor volume was below 14 mm^3 or could not be recorded. • RTV: Relative Tumor Volume. RTV=Vt/V0∘ Vt: Tumor volume at the end of an experimental period (treatment group). V0: tumor volume at the beginning of the experiment • TGI: Tumor Growth Inhibition value. TGI=[1−RTV(experimental group)/RTV(control group)]*100%
A two-way ANOVA type with factors treatment an day(repeated) was performed on tumor volume changes from baseline. In case of significant treatment day interaction or treatment effects, it was followed by a contrast analysis with Bonferroni-Holm correction for multiplicity to compare all treated groups to the control group at each day from day 8 to 27. Tumor volume changes from baseline were calculated for each animal and each day by subtracting the tumor volume on the day of first treatment from the tumor volume on the specified observation day. As heterogeneity of variances was observed between groups, the compound symmetric(CS) covariance structure with group=option was chosen for the ANOVA type model (SAS Institute Inc. (2008) SAS/STAT 9.2User′s Guide by CaryNC). All statistical analyses were performed using SAS version v9.2 software. A probability less than 5% (p<0.05).
6-8 weeks old balb/c mice (18-20 g) were purchased from Beijing Weitong Lihua Experimental Animal Technology Co., Ltd., and each mouse was subcutaneously inoculated with 500,000 A20 cells on the right rear side of the mouse's back. Treatment was initiated when tumors grew to a volume of approximately 62 mm^3. CN401 was orally administered at 150 mg/kg twice a day for 3 weeks.
CN202 was administered by intraperitoneal injection, 3 times a week at a dose of 5 mg/kg for 3 weeks. The control group was treated with vehicle (0.5% MC and PBS) without active product. Tumor size and body weight were measured three times a week. This animal experiment was carried out in accordance with the requirements of AAALAC, and was approved by Bikai Animal Experiment Center IACUC to conduct this animal experiment.
Referring to the experimental method of Example 1.1, the difference is that the dosage of CN202 is replaced by 15 mg/kg from 5 mg/kg. […]

Assay [2] has as its system EMT-6 cells (mouse triple-negative breast cancer cells). The assay is classed as in vivo. To be noted: Example 4, CN401 150 mg/kg oral, twice a week × 4 week (Table 12). On the procedure: Tumors were measured with a caliper twice weekly until final sacrifice. […] Solid tumor volumes were estimated from two dimensional tumor measurements and calculated according to the following equation: […]

For “Anti-PD-L1 Ab: Anti-PD-L1 antibody (Atezolizumab), CAS Number: 1380723-44-3 [reference compound]”, in assay [1] (Example 3, anti-PD-L1 Ab (atezolizumab) 5 mg/kg i.p. biw × 3 weeks, day 22), the “CR(Number of mice with tumor regression/total amount of mice in each group)” value was 0/8. The TGI % in assay [1] (Example 3, anti-PD-L1 Ab (atezolizumab) 5 mg/kg i.p. biw × 3 weeks, day 22 vs vehicle control, p=0.57) is recorded as 15%.
As for `Cc1nc(NC(=O)N2CCC[C@H]2C(N)=O)sc1-c1ccnc(C(C)(C)C(F)(F)F)c1` [Alpelisib, (2S)-1-N-[4-methyl-5-[2-(1,1,1-trifluoro-2-methylpropan-2-yl)pyridin-4-yl]-1,3-thiazol-2-yl]pyrrolidine-1,2-dicarboxamide, reference compound], in assay [1] (Example 2.2, Alpelisib 50 mg/kg p.o. qd × 3 weeks, day 21), the “CR(Number of mice with tumor regression/total amount of mice in each group)” value is reported as 0/7. The TGI % in assay [1] (Example 2.2, Alpelisib 50 mg/kg p.o. qd × 3 weeks, day 21 vs vehicle control, p=0.161) was found to be 37%.
For the compound `CC[C@H](Nc1ncnc2nc[nH]c12)c1oc2ccccc2c(=O)c1-c1cccc(F)c1` [CN401, (S)-2-(1-(9H-purin-6-ylamino)propylgroup)-3-(3-fluorophenyl)-4H-chromen-4-one], the “CR(Number of mice with tumor regression/total amount of mice in each group)” value in assay [1] (Example 1.1, CN401 150 mg/kg p.o. bid × 3 weeks, day 22) is on record as 2/8; in assay [1] (Example 1.2, CN401 150 mg/kg p.o. bid × 3 weeks, day 22) it was 2/8; in assay [1] (Example 2.1, CN401 150 mg/kg p.o. bid × 3 weeks, day 22) it was 0/7; in assay [1] (Example 3, CN401 150 mg/kg p.o. bid × 3 weeks, day 22), 2/8; in assay [2] (observed up to 80 days), 0/8. Moreover, the TGI % in assay [1] (Example 1.1, CN401 150 mg/kg p.o. bid × 3 weeks, day 22 vs vehicle control, p=0.034) came to 55%; in assay [1] (Example 1.2, CN401 150 mg/kg p.o. bid × 3 weeks, day 22 vs vehicle control, p=0.034), 55%; in assay [1] (Example 2.1, CN401 150 mg/kg p.o. bid × 3 weeks, day 22 vs vehicle control, p=0.028) it was 45%; in assay [1] (Example 3, CN401 150 mg/kg p.o. bid × 3 weeks, day 22 vs vehicle control, p=0.034), 55%; in assay [2] (14th day vs vehicle control, p=0.87) it was 3%.
